Measurements published in US12281077B2, “Solid forms of n-tert-butyl-4[[2-(5-chloro-2-hydroxy-phenyl)acetyl]amino]pyridine-2-carboxamide” (TMEM16A LIMITED, priority 2019, dated 2025).
Entries after “also recorded” stand apart in the source; their conditions may differ. Where two headings read alike, the source gives them in different places.

Legend:
Format in all cases: physicochemical
[1] = Competitive suspension equilibrations in acetonitrile; settings: acetonitrile (20 vol)
Description: Form A of Compound 1 and the appropriate other form(s) of Compound 1 were suspended in acetonitrile (20 vol). […] When completed, the products were isolated, oven dried and analysed by XRPD.

[2] = Dynamic vapour sorption (DVS) of Form A
Method: The moisture sorption properties of the feed API were analysed by DVS (DVS Intrinsic,
Surface Measurement System). Approximately 50 mg of API was weighed into an aluminium pan and loaded into the instrument at 25° C. The sample was allowed to equilibrate under dry atmosphere (0% relative humidity) for 1 hour before increasing the humidity from 0% to 30% at 5% step increment and from 30% to 90% at 10% step increment. A desorption cycle was also applied from 90% to 30% (10% step) and from 30% to 0% (5% step). A rate of change by time was set as the equilibrium parameter (1 hour each step). Kinetic and isotherm graphs were calculated.

[3] = Aqueous surfactant equilibration of Form A: conversion into Form B monitored by XRPD
Method: A sample of Form A was micronised using an AS100 spiral jet mill (Alpine) with a ZD9 screw dosing system at a milling gas pressure of 5.0 bar (18° C.) and an injection gas pressure of 6.0 bar (18° C.). Feed rate was 350 g/hr.
Form A and micronised Form A were added to purified water containing the surfactants shown in Table 6, and the mixtures were stirred at 20° C.
Sub samples (300 to 500 μl) were withdrawn at the appropriate time points. The mixtures were centrifuged, the clarified supernatant was decanted, and the pellet was oven dried (20° C., 24 h) and analysed by XRPD. […] The time taken for complete conversion of Form A into Form B was concluded when Form A was no longer detectable by XRPD.
A micelle is an aggregate of surfactant molecules dispersed in a liquid colloid. Micelles form only when the concentration of surfactant is greater than the critical micelle concentration (CMC). • Surf 1: TWEEN® 80 (polysorbate 80; polyoxyethylene sorbitan monooleate) Critical Micellar Concentration (CMC) 13-15 mg/litre [actual concentration used=1 mg/ml, 1000 mg/litre>CMC] • Surf 2: TWEEN® 20 (polysorbate 20; polyethylene glycol sorbitan monolaurate) 20 Critical Micellar Concentration (CMC) ca 61 mg/litre [actual concentration used=0.5 mg/ml, 500 mg/litre>CMC] • Surf 3: SPAN® 20 (sorbitan monolaurate) no CMC in water, too hydrophobic and yet still exerted an inhibitory effect on the form conversion • Surf 4: TWEEN® 80 Critical Micellar Concentration (CMC) 13-15 mg/litre [actual concentration used=0.01 mg/ml, 10 mg/litre<CMC] • TWEEN® surfactants are soluble in water and SPAN® surfactants are oil soluble and not able to form micelles in water.

[4] = Thermocycling of Form A, Form B(I) and Form B(II) in purified water; settings: purified water (10 vol), −10 to +10° C., ±0.5° C./minute, 75 h
Method: Samples of Compound 1, Form A, Form B(I) and Form B(II) were charged to separate Crystal 16 blank, glass vials and purified water (1 ml, 10.0 vol) was added each vial. Each vial underwent thermocycling from −10 to +10° C. at a ramp rate of ±0.5° C./minute, over 75 h.

[5] = Thermocycling of Form B(I) in buffered aqueous suspensions (Form A control); settings: −10° C. to +40° C.
Method: Form B(I) was prepared in the relevant formulation under sterile conditions. The samples were thermocycled for approximately 202 complete cycles. Off-line analyses of the suspensions were performed by polarised light microscopy and end point sampling was performed on the isolated solid pellets of the suspensions after centrifugation. The thermocycling incorporated a wide temperature range (−10° C. to +40° C.). A parallel study was performed using micronised Form A as control.
In all cases, the suspension volume was 2 ml and thermocycling was carried out over a temperature range −10° C. to +40° C. at a rate of change of 1° C./min for a duration of 336 hours (14 days) and […] cycles.
At daily intervals, a droplet from each thermocycle suspension was withdrawn, placed on a microscope slide and photographed. After 14 days constant thermocycling, the suspensions were filtered, isolable solids were oven dried and analysed for evidence of form change and change in chemical purity.

[6] = Suspension equilibrations of Form A (Example 7)
Method: Compound 1 Form A, (ca 50 mg, 1.0 wt) and the appropriate solvent (1000 μl, 20 vol) were charged to separate vessels and stirred for 7 days at 20° C. After this time the products were cooled, isolated by filtration, washed with recycled maturation solvent, dried under reduced pressure at 40° C. and analysed by XRPD for evidence of alternative crystalline forms.
Separate portions of Compound 1, Form A (ca 50 mg, 1.0 wt.), and the appropriate solvent (1000 μl, 20 vol.) were charged to separate vessels and stirred for 7 days at 40° C. After this time, the products were cooled, isolated by filtration, washed with recycled maturation solvent, dried under reduced pressure at 40° C. and analysed by XRPD for evidence of alternative crystalline forms. N.B. water was also included in this screen. • All of the products corresponded to Form A, except the product isolated from tBME (Form D), and from THF (Form G; see FIG. 18). […] C. Aqueous Suspension Equilibrations of Form A at 20° C.
Separate portions of Compound 1, Form A (ca 50 mg, 1.0 wt.), and the appropriate solvent (950 μl, 19 vol) and purified water (50 μl, 1.0 vol) were charged to separate vessels and stirred for 7 to 10 days at 20° C. […] Form C is an anhydrous form, and sometimes occurs in the presence of aromatic solvents (toluene and trifluorotoluene).

[7] = Suspension equilibration of Form B(II) in acetonitrile/water
Method: To further investigate the stability hierarchy of Form B (I) and Form B (II), an equal portion of both Form B (I) and Form B (II) were competitively slurry ripened in 4 to 1 MeCN/Water (w/w) for 3 days.
One portion of Form B(II) (1.06 g) was charged with 4 to 1 v/v acetonitrile/water (15 vol, 15 ml). This was stirred at room temperature with a flow of nitrogen. The mixture was subsampled at t=4 h and t=23 h. The subsamples were centrifuged down (13400 rpm for 15 min), supernatants were removed and dried overnight in oven at 40° C. under reduced pressure.

[8] = Compaction of Forms B(I) and B(II) (ca 10 tonnes)
Description: Assuming that the inconsistencies between the dehydration behaviours of the two batches were attributed to different locations and bindings of their water occupancies, both were examined after 10 tonne compaction, to determine if their dehydration features were conserved or altered after the application of equal pressure treatments.
A finely divided specimen of Form B(II) was applied evenly to the smooth surface of the lower sample anvil that was located inside the compression cell apparatus. A second smoothed face anvil was placed above the first and the sample was pressed into place using finger pressure. The sealed sample cell was then evacuated under house vacuum pressure for at least 5 minutes. An axial load of ca 10 metric tonnes was applied to the upper anvil and the specimen was maintained under a state of unilateral compression for at least 15 minutes. After which time, the apparatus was dismantled and the product was retrieved from the sample holder and analysed to determine if any phase modifications had taken place.

[9] = Suspension equilibration of Form B in anhydrous acetonitrile; settings: room temperature
Method: One portion of Form B(II) (1.01 g) was charged with anhydrous acetonitrile (15 vol, 15 ml).
This was stirred at room temperature with a flow of nitrogen. The mixture IPC was subsampled at t=3 h and t=23 h. The subsampled mixtures were centrifuged down (13400 rpm for 15 min), supernatants were removed and dried overnight in oven at 40° C. under reduced pressure. The remaining solid was dried (t=2 days) in oven overnight under reduced pressure at 40° C. overnight. The dried white solid (0.54 g, 54% yield not corr.) was analysed by XRPD and DSC.
A similar procedure was carried out for a portion of Form B(I) (1.06 g). Int his case, the mixture was subsampled at t=5 h and isolation was carried out at t=5 days. The uncorrected yield was 66%.

[10] = Suspension equilibration of Form B(II) in purified water; settings: room temperature
Method: One portion of Form B(II) (1.0 g) was charged with purified water (15 vol, 15 ml). This was stirred at room temperature with a flow of nitrogen for 20 h. The mixture was subsampled at t=2 h and t=20 h. The subsampled mixture was centrifuged down (13400 rpm for 15 min) and supernatant was removed. The remaining solid was dried (at t=3 days) in the oven under reduced pressure at 40° C. overnight. The dried white solid (A0903-184-C1, 0.84 g, 83% yield not corr.). The result for the sample at 3 days are not shown as these are the same as the subsample taken at 20 hours.

[11] = micronised (particle size 2 μm), 20° C., with or without surfactant
[12] = citrate buffered surfactant suspensions, 1° C./min, 14 days

CC(C)(C)NC(=O)c1cc(NC(=O)Cc2cc(Cl)ccc2O)ccn1 [Form A + Form D (1/1 w/w)]
Output form (XRPD) ([1]; 40 ° C., stirred 7 days): Form A

CC(C)(C)NC(=O)c1cc(NC(=O)Cc2cc(Cl)ccc2O)ccn1 [Form A + Form F (1/1 w/w)]
Output form (XRPD) ([1]; 20 ° C.): Form A

CC(C)(C)NC(=O)c1cc(NC(=O)Cc2cc(Cl)ccc2O)ccn1 [Form A, N-tert-Butyl-4-[[2-(5-chloro-2-hydroxy-phenyl)acetyl]amino]pyridine-2-carboxamide]
hydrate formation, XRPD repeated after the DVS test [2]: no hydrate was formed
hygroscopicity / moisture affinity by DVS [2]: not hygroscopic
change in mass (uptake of water) by DVS ([2]; 90% relative humidity (RH), 25° C.): 0.02%
storage stability of Form A in pre-made composition (surfactant present) ([3]; 20 to 40° C. storage conditions): 120 h
Form B in aqueous suspension of Form A ([3]; 24 hour time point): no Form B can be detected
form present in aqueous suspension of Form A ([3]; after 8 days): substantially all of the Compound 1 was present as the Form B hydrate crystalline form
time after which micronised Form A had almost completely converted into Form B [3, 11]: 146 h
time after which micronised Form A had started to convert to Form B [3, 11]: 48 h
Output form (XRPD) ([1]; 40 ° C., stirred 7 days): Form A
form change by XRPD and DSC after thermocycling [4]: did not change
form after thermocycling (XRPD) ([5]; citrate buffered Tween® 20/Span® 22, 14 days, 1° C./min): converted to Form B
form after thermocycling (XRPD) ([5]; citrate buffered Tween® 80, 14 days, 1° C./min): converted to Form B
time point of first morphological change (polarised light microscopy) ([5]; citrate buffered surfactant suspensions, 1° C./min): eight day
form stability to constant thermocycling (XRPD, DSC, TGA, microscopy) [5, 12]: changed into Form B(I)
chemical purity after thermocycling ([5]; 14 days, accompanying the form change): No reduction in chemical purity
form after suspension equilibration in purified water only (XRPD) ([6]; 20° C., 7 to 10 days): partial conversion into Form B
form after suspension equilibration in purified water (XRPD) ([6]; 40° C., 7 days): Form A, no Form B was evident
form stability in solvent suspension (XRPD) ([6]; anhydrous solvents (20 vol), 20° C., 7 days): resilient to prolonged solvent mediated treatments

CC(C)(C)NC(=O)c1cc(NC(=O)Cc2cc(Cl)ccc2O)ccn1 [Form B (I) and Form B (II)]
resulting solid (DSC) after competitive slurry ripening ([7]; 4 to 1 MeCN/Water (w/w), 3 days): Form B (I)

CC(C)(C)NC(=O)c1cc(NC(=O)Cc2cc(Cl)ccc2O)ccn1 [Form B(I), N-tert-Butyl-4-[[2-(5-chloro-2-hydroxy-phenyl)acetyl]amino]pyridine-2-carboxamide]
form after 10 tonne compaction (DSC) [8]: unchanged
form after suspension equilibration in anhydrous acetonitrile (XRPD) ([9]; 5 hours, 5 days similar): rapidly converted to Form A
form change by XRPD and DSC after thermocycling [4]: unchanged
form stability to constant thermocycling (XRPD, DSC, TGA, microscopy) [5, 12]: stable

CC(C)(C)NC(=O)c1cc(NC(=O)Cc2cc(Cl)ccc2O)ccn1 [Form B(II), N-tert-Butyl-4-[[2-(5-chloro-2-hydroxy-phenyl)acetyl]amino]pyridine-2-carboxamide]
degree of crystallinity by XRPD before compression [8]: 87.2%
form after 10 tonne compaction (DSC) [8]: converted to Form B(I)
degree of crystallinity by XRPD after compression ([8]; ca 10 metric tonnes): 80.3%
form after 10 tonne compaction (DSC) ([8]; listed as Form B (II)): Form B (I) emerged
form after suspension equilibration in anhydrous acetonitrile (XRPD) ([9]; 3 hours, 23 hours and 3 days substantially the same): rapidly converted to Form A
form change by XRPD and DSC after thermocycling [4]: almost all converted to the unimodal event
form after stirring in 4 to 1 v/v acetonitrile/water (DSC, XRPD) ([7]; room temperature, t=4 h and t=23 h): production of Form B(I); also recorded: converted to Form B(I)
form after suspension equilibration in purified water (DSC) ([10]; 2 hours): only the unimodal event was observed; also recorded: converted to Form B(I)
form after suspension equilibration in purified water (DSC) ([10]; 20 hours and three days): converted to Form B(I)
